Experimental data from patent publication US20060166984A1, “Amino substituted benzo(hetero)cyclic derivatives” (priority 2003, published 2006).
Where two headings read alike, the source gives them in different places.

How the values were obtained:
[1] = test system: Twospotted Spider Mite (Tetranychus urticae); assay: Twospotted Spider Mite dip test on lima bean plants; assay type: in vivo; details: 120 h, read-out: mortality compared to untreated controls
Procedure: Twospotted Spider Mite (Tetranychus urticae)
Lima bean plants in the 1st leaf-pair stage (variety ‘Henderson’) were infested with approximately 100 laboratory-reared mites per leaf by placing infested leaf sections on top of the test plants. The leaf sections were removed after 24 hours. The foliage of the intact plants was dipped into gradient solutions of the test compounds. Mite mortality was determined after 5 days.

[2] = test system: Cotton Aphid (aphis gossypii); assay: Cotton Aphid foliar dip test on cotton cotyledons; assay type: in vivo; details: 120 h, counts after 5 days, read-out: mortality in comparison with untreated controls
Excerpt: Cotton Aphid (aphis gossypii)
The active compounds were formulated in 50:50 acetone:water and 100 ppm Kinetic® surfactant (a nonionic wetting agent which is a blend of polyalkyleneoxide modified polydimethylsiloxane and polyoxypropylene-polyoxyethylene copolymers, available from Helena Chemical Company, Memphis, Tenn. 38119, U.S.A.).
Cotton plants at the cotyledon stage (one plant per pot) were infested by placing a heavily infested leaf from the main colony on top of each cotyledon. The aphids were allowed to transfer to the host plant overnight, and the leaf used to transfer the aphids was removed. The cotyledons were dipped in the test solution and allowed to dry. After 5 days, mortality counts were made.

[3] = test system: Green Peach Aphid (myzus persicae); assay: Green Peach Aphid foliar dip test on pepper plants; assay type: in vivo; details: 120 h, read-out: mortality in comparison with untreated controls
Procedure: Green Peach Aphid (myzus persicae)
(§1) The active compounds were formulated in 50:50 acetone:water and 100 ppm Kinetic® surfactant.
Pepper plants in the 2nd leaf-pair stage (variety ‘California Wonder’) were infested with approximately 40 laboratory-reared aphids by placing infested leaf sections on top of the test plants. The leaf sections were removed after 24 hours. The leaves of the intact plants were dipped into gradient solutions of the test compound and allowed to dry. Test plants were maintained under fluorescent light (24 hour photoperiod) at about 25° C. and […] relative humidity. Aphid mortality on the treated plants, relative to mortality on check plants, was determined after 5 days.

[4] = test system: Silverleaf whitefly (bemisia argentifolii); assay: Silverleaf whitefly test on dipped cotton cotyledons; assay type: in vivo; details: 72 h, whitefly adults on cotton, 3 days after treatment, read-out: mortality compared to untreated controls
Procedure: Silverleaf whitefly (bemisia argentifolii)
as §1
Selected cotton plants were grown to the cotyledon state (one plant per pot). The cotyledons were dipped into the test solution to provide complete coverage of the foliage and placed in a well-vented area to dry. Each pot with treated seedling was placed in a plastic cup and 10 to 12 whitefly adults (approximately 3-5 day old) were introduced. The cups were covered with a re-usable screened lid (150 micron mesh polyester screen PeCap from Tetko Inc). Test plants were maintained in the holding room at about 25° C. and 20-40% relative humidity for 3 days avoiding direct exposure to the fluorescent light (24 hour photoperiod) to prevent trapping of heat inside the cup.
Mortality was assessed 3 days after treatment of the plants.

Bean Aphid (Aphis fabae) = assay: Bean Aphid dip test on nasturtium plants; assay type: in vivo; details: 72 h, after 3 days, read-out: mortality compared to untreated controls
Procedure: Nasturtium plants in the 1st leaf-pair stage (variety ‘Mixed Jewle’ were infested with approximately 25 laboratory-reared aphids by placing infested cut plants on top of the test plants. The cut plants were removed after 24 hours. The foliage and stem of the test plants were dipped into gradient solutions of the test compound. Aphid mortality was determined after 3 days.

[5] = 300 ppm, spider mite on lima bean, after 5 days
[6] = 300 ppm, green peach aphid on pepper, after 5 days

SMILES: CCN1CCN(C2=CCCc3ccccc32)CC1
- melting point: 68 to 70 °C

SMILES: CN1CCN(C2=CCCc3ccc(F)cc32)CC1 [Compound 21, 1-(7-Fluoro-3,4-dihydro-1-naphthalenyl)-4-methylpiperazine]
- mortality at 300 ppm [1, 5]: > 70%

SMILES: CN1CCN([C@@H]2C[C@@H](c3ccc(F)cc3)c3ccc(Cl)cc32)CC1 (relative stereo) [Compound 61, Trans-1-[3-(4-fluorophenyl)-6-chloro-2,3-dihydro-1H-inden-1-yl]4-methylpiperazine]
- mortality at 300 ppm [2]: > 85%
- mortality at 300 ppm [3, 6]: > 85%

SMILES: CN1CCN(C2=Cc3ccccc3C2)CC1
- melting point: 158 to 160 °C

SMILES: CN1CCN(c2cccc3ccccc23)CC1 [Compound 5, 1-Methyl-4-(1-naphthyl)-piperazine]
- mortality at 300 ppm [3]: > 85%

SMILES: CN1CCN(C2CCc3ccccc3C2)CC1 (stereo not shown) [Compound 14, 1-(1,2,3,4-Tetrahydro-2-naphthalenyl)-4-methylpiperazine]
- mortality at 300 ppm [1, 5]: > 70%

SMILES: CN1CCN(C2CCCc3ccc(F)cc32)CC1 (stereo not shown) [Compound 20, 1-(7-Fluoro-1,2,3,4-tetrahydro-1-naphthalenyl)-4-methylpiperazine]
- mortality at 300 ppm [2]: > 85%
- mortality at 300 ppm [3, 6]: > 85%
- mortality at 300 ppm [4]: > 95%
- mortality at 300 ppm [1, 5]: > 70%

SMILES: CCN1CCN(C2=Cc3ccccc3C2)CC1
- melting point: 124 to 126 °C

SMILES: CN1CCN(C2CCSc3ccc(Cl)cc32)CC1 (stereo not shown) [Compound 16, 1-(6-Chloro-3,4-dihydro-2H-thiochromen-4-yl)-4-methylpiperazine]
- mortality at 300 ppm [2]: > 85%
- mortality at 300 ppm [3, 6]: > 85%
- mortality at 300 ppm (Bean Aphid (Aphis fabae)): > 70%

SMILES: CN1CCN(c2nccc3ccccc23)CC1 [Compound 12, 1-(1-Isoquinolinyl)-4-methylpiperazine]
- mortality at 300 ppm [1]: > 70%
